The target of one data set is T1, H1299 cell pMer (Homo sapiens, UniProt Q12866).
T1 construct: endogenous in cells; host or cells: H1299
T1 sequence (Q12866 21-999): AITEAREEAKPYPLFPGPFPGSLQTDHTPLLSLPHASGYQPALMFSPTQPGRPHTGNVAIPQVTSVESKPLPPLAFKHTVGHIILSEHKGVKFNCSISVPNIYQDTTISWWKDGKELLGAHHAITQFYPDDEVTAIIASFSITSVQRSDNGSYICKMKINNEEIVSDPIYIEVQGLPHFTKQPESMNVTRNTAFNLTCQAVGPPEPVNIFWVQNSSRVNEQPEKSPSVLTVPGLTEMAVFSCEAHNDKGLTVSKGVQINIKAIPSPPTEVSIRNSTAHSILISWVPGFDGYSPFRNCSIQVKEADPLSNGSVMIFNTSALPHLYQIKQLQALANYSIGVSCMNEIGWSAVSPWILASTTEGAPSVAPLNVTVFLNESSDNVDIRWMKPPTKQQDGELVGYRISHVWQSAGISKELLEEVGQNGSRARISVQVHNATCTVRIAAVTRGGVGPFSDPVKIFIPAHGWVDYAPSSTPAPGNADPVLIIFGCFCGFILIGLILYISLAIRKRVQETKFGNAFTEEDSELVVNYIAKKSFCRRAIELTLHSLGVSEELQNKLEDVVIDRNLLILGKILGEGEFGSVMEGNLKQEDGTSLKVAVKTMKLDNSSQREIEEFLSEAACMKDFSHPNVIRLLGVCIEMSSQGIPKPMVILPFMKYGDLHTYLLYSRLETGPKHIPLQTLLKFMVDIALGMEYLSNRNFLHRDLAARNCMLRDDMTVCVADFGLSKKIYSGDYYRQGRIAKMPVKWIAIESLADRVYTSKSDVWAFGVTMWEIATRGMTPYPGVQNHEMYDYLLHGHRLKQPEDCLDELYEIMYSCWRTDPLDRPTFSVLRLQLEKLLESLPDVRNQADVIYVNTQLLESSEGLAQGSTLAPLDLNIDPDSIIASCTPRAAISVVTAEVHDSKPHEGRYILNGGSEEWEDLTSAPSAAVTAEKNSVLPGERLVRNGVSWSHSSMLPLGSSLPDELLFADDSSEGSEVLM
Put plainly: Inhibitory activity on cell pMer, H1299 cells, Human Mer Mab stimulation, Western Blot. The format is cell-based. The conditions noted are these: Human Mer Mab 200 ng/mL. As for the experimental part: H1299 is anon-small cell lung cancer cell.
H1299 cells were inoculated to a 6-well plate (containing 10% FBS 1640 medium, 5×10^5 cells per well) and adherently cultivated at 37° C., and 5% CO2 for 18 hrs. The cells were starved overnight, and then compound solutions with different concentrations were added. The compounds had final concentrations of 0.35, 1.1, 3.3 and 10 nM. […] There was a medium containing 1‰DMSO in the negative control well. The cells were incubated at 37° C., and 5% CO2 for 60 min, and then Human Mer Mab (R&D, final concentration: 200 ng/mL) was added to each well. The cells were further incubated for 60 min, and then the total protein of the cells was extracted for Western Blot experiment. Gray analysis was performed on the results with Image J software, and IC50 values were calculated with GraphPad 5.0 software. The inhibitory activities of the compounds on cell pMer were detected.
On the technique in general: Immunoblotting shows a protein as a band on a membrane.

The target of the next data set is CSF1R (h) (Homo sapiens, UniProt P07333). Put plainly: Enzymatic activity assay, CSF1R (h), [γ-33P]-ATP filter assay. The conditions noted are these: 10 μM ATP, 40 min room temperature; read-out: Inhibitory activity IC50 CSF1R(h). Type of data set: biochemical. How it is done: Compounds were each dissolved in 100% DMSO to prepare stock solutions with a maximum concentration of 500 μM.
CSF1R (h), sequence (P07333 20-972): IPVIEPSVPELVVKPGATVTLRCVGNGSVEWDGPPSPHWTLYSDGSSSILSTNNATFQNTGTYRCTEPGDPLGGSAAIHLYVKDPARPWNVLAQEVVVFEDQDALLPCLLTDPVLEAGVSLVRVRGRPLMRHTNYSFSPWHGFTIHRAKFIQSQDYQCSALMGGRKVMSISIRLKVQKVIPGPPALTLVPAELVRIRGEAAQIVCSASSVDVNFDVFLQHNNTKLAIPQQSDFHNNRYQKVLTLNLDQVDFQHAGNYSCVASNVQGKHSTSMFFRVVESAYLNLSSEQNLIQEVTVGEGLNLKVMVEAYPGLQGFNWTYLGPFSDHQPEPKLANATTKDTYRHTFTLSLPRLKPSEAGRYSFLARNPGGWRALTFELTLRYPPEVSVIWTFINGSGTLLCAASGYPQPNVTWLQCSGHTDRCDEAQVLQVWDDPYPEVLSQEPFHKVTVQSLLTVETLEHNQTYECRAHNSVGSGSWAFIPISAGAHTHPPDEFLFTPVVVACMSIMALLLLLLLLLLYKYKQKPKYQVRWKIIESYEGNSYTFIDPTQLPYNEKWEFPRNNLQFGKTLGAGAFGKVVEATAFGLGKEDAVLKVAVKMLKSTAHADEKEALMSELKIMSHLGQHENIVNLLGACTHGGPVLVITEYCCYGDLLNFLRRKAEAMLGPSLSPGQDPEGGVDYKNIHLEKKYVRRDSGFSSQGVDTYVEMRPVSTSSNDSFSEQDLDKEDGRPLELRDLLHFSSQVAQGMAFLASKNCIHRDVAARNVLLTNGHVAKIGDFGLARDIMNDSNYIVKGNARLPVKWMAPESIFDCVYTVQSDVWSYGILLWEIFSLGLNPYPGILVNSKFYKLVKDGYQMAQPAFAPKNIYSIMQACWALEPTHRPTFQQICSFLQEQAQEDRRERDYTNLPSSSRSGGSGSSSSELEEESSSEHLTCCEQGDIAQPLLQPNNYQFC
Compound working solutions (50×) were prepared by diluting a compound stock solution to a final concentration of 500, 150, 50, 15, 5, 1.5, 0.5, 0.15 and 0.05 μM.
An enzyme solution with a final concentration of 64 nM was prepared by dissolving CSF1R enzyme in a mixture of 8 mM MOPS (pH 7.0), 0.2 mM EDTA and 250 μM KKSRGDYMTMQIG. A Mg/ATP mixture of 10 mM magnesium acetate and 10 μM [γ-^33P]-ATP was used to activate the enzymatic reaction.
A compound working solution was added to a 384-well plate, with final concentrations of 10,000, 3,000, 1,000, 300, 100, 30, 10, 3 and 1 nM, and then different enzymatic reaction solutions prepared according to the above conditions were added. The reaction solutions were incubated at room temperature for 40 min, and then 0.5% phosphoric acid solutions were added to terminate the reaction. 10 μL of the reaction solution was added dropwise to P30 filter paper, washed 4 times with a 0.425% phosphoric acid solution and once with methanol, and then placed in a scintillation counter for detection. Gray analysis was performed on the results with Image J software, and IC50 values were calculated with GraphPad 5.0 software.

A short description of data set [1]: Liver microsomal stability. As to conditions: mouse liver microsomes, 0.5 mg protein/mL, 1 μM compound. The format is in vitro ADME. As for the experimental part: An appropriate amount of the compound was precisely weighed and dissolved in DMSO to prepare a 5.0 mM stock solution. The 5.0 mM stock solution was diluted with DMSO to 1.0 mM, and finally diluted with water to a 10 μM working solution of the test sample for use (the DMSO content in the reaction system was 0.1%).
(1) The liver microsomes (20 mg protein/mL) were taken from a −80° C. refrigerator, pre-incubated on a 37° C. water bath thermostatic oscillator for 3 min, and thawed for use.
(2) An incubation system (without compound and β-NADPH) was prepared according to “composition of the incubation system” described above, and pre-incubated on a 37° C. water bath thermostatic oscillator for 2 min.
(3) Control group (without β-NADPH): 30 μL of water and 30 μL of compound working solution (10 μM) were added to 240 μL of the incubation system in step (2), and the reaction system was vortexed for 30 s and thoroughly mixed. The total volume of the reaction system was 300 μL. The sample was duplicated. The reaction solution was placed on a 37° C. water bath thermostatic oscillator for incubation, and timing was started. The sampling was conducted at 0 min and 60 min.
(4) Sample group: 70 μL of β-NADPH solution (10 mM) and 70 μL of compound working solution (10 μM) were added to 560 μL of the incubation system in step (2), and the total volume of the reaction system was 700 μL. The reaction solution was vortexed for 30 s and thoroughly mixed. The sample was duplicated. The reaction solution was placed on a 37° C. water bath thermostatic oscillator for incubation, and timing was started. The sampling was conducted at 0 min, 5 min, 10 min, 20 min, 30 min and 60 min.
(5) The reaction solution was vortexed for 3 min, and centrifuged at 12,000 rpm for 5 min.
(6) 50 μL of the supernatant was added to 150 μL of water, and the resulting solution was thoroughly vortexed and analyzed by LC/MS/MS.

The structures appear in SMILES notation. Where only a bound is given, the exact number is not on record here.

12 compounds from US20210177828A1, “TAM FAMILY KINASE /AND CSF1R KINASE INHIBITOR AND USE THEREOF” (Nanjing Transthera Biosciences Co., Ltd., priority 2018, published 2021) can be followed below.

What is called IC50 is the point on the concentration scale where inhibition reaches its midpoint. Usually half-life stands for how long it takes for the measured level to halve. Usually microsomal CLint stands for the rate of metabolic loss divided by the concentration. Lower therefore signals slow turnover.

For the compound `COc1cc2nccc(Oc3ccc(NC(=O)c4cn(CC5CCOCC5)cc(-c5ccc(C)cc5)c4=O)nc3)c2cc1OC` [Compound 1, N-(5-((6,7-dimethoxyquinolin-4-yl)oxy)pyridin-2-yl)-4-oxo-1-((tetrahydro-2H-pyran-4-yl)methyl)-5-(p-tolyl)-1,4-dihydropyridin-3-carboxamide], the IC50 against H1299 cell pMer fell in the range of 1.1 to 3.3 nM.
As for `COc1cc2nccc(Oc3ccc(NC(=O)c4nn(CC5CCOCC5)cc(-c5ccc(C)cc5)c4=O)nc3)c2cc1OC` [Compound 2, N-(5-((6,7-dimethoxyquinolin-4-yl)oxy)pyridin-2-yl)-4-oxo-1-((tetrahydro-2H-pyran-4-yl)methyl)-5-(p-tolyl)-1,4-dihydropyridazin-3-carboxamide], the figures for the IC50 at CSF1R (h) and at H1299 cell pMer were < 200 nM and 1.1 nM, respectively.
Consider `COc1cc2nccc(Oc3cnc(NC(=O)c4cn(CC5CCOCC5)cc(-c5ccc(C)cc5)c4=O)nc3)c2cc1OC` [Compound 4, N-(5-((6,7-dimethoxyquinolin-4-yl)oxy)pyrimidin-2-yl)-4-oxo-1-((tetrahydro-2H-pyran-4-yl)methyl)-5-(p-tolyl)-1,4-dihydropyridin-3-carboxamide], for which, at CSF1R (h), the half-inhibitory concentration (IC50) is < 200 nM. Also, it took 1.1 nM to reach half-maximal inhibition against H1299 cell pMer (IC50). Also, in data set [1], the half-life at 1 μM was 3.22 h and the microsomal CLint at 1 μM turned out to be 7.2 µL/min/mg.
In data set [1], `COc1cc2nccc(Oc3ccc(NC(=O)c4cn(CC5CC[S+]([O-])CC5)cc(-c5ccc(C)cc5)c4=O)nc3)c2cc1OC` (centres unmarked) [Compound 8, N-(5-((6,7-dimethoxyquinolin-4-yl)oxy)pyridin-2-yl)-1-((1-oxotetrahydro-2H-thiopyran-4-yl)methyl)-4-oxo-5-(p-tolyl)-1,4-dihydropyridin-3-carboxamide] returned a half-life at 1 μM of 3.22 h and a microsomal CLint at 1 μM of 7.2 µL/min/mg.
Regarding `COc1cc2nccc(Oc3ccc(NC(=O)c4cn(CC5CCSCC5)cc(-c5ccc(C)cc5)c4=O)nc3)c2cc1OC` [Compound 9, N-(5-((6,7-dimethoxyquinolin-4-yl)oxy)pyridin-2-yl)-4-oxo-1-((tetrahydro-2H-thiopyran-4-yl)methyl)-5-(p-tolyl)-1,4-dihydropyridin-3-carboxamide], at H1299 cell pMer, the IC50 was in the range of 1.1 to 3.3 nM. Further, in data set [1], the half-life at 1 μM was 0.818 h and the microsomal CLint at 1 μM was determined as 28.2 µL/min/mg.
Regarding `COc1cc2nccc(Oc3cnc(NC(=O)c4nn(CC5CCOCC5)cc(-c5ccc(C)cc5)c4=O)nc3)c2cc1OC` [Compound 16, N-(5-((6,7-dimethoxyquinolin-4-yl)oxy)pyrimidin-2-yl)-4-oxo-1-((tetrahydro-2H-pyran-4-yl)methyl)-5-(p-tolyl)-1,4-dihydropyridazin-3-carboxamide], the IC50 on CSF1R (h) is < 200 nM. Besides, the IC50 at H1299 cell pMer was 1.1 nM. Besides, in data set [1], the half-life at 1 μM was 3.5 h and the microsomal CLint at 1 μM came to 6.6 µL/min/mg.
As for `COc1cc2nccc(Oc3ccc(NC(=O)c4cn(C5CCOCC5)cc(-c5ccc(C)cc5)c4=O)nc3)c2cc1OC` [Compound 19, N-(5-((6,7-dimethoxyquinolin-4-yl)oxy)pyridin-2-yl)-4-oxo-1-(tetrahydro-2H-pyran-4-yl)-5-(p-tolyl)-1,4-dihydropyridin-3-carboxamide], at H1299 cell pMer, the half-inhibitory concentration (IC50) is < 0.35 nM. Further, in data set [1], the half-life at 1 μM was found to be 2.27 h and the microsomal CLint at 1 μM turned out to be 10.2 µL/min/mg.
On to `COc1cc2nccc(Oc3ccc(NC(=O)c4cc(CC5CCOCC5)cn(-c5ccc(C)cc5)c4=O)nc3)c2cc1OC` [Compound 26, N-(5-((6,7-dimethoxyquinolin-4-yl)oxy)pyridin-2-yl)-oxo-5-((tetrahydro-2H-pyran-4-yl)methyl)-1-(p-tolyl)-1,2-dihydropyridin-3-carboxamide], for which the IC50 at CSF1R (h) was < 200 nM. In data set [1], this compound returned a half-life at 1 μM of 1.75 h and a microsomal CLint at 1 μM of 13.2 µL/min/mg.
In data set [1], `Cc1ccc(-c2cn(C3CCOCC3)nc(C(=O)Nc3ccc(Oc4ccnc5cc6c(cc45)OCO6)cn3)c2=O)cc1` [Compound 29, N-(5-([1,3]dioxolo[4,5-g]quinolin-8-yloxy)pyridin-2-yl)-4-oxo-1-(tetrahydro-2H-pyran-4-yl)-5-(p-tolyl)-1,4-dihydropyridazin-3-carboxamide] returned a half-life at 1 μM of 1.6 h and a microsomal CLint at 1 μM of 14.4 µL/min/mg.
`Cc1ccc(-c2cn(C3CCOCC3)nc(C(=O)Nc3ccc(Oc4ccnc5cc6c(cc45)OCCO6)cn3)c2=O)cc1` [Compound 30, N-(5-((2,3-dihydro-[1,4]dioxino[2,3-g]quinolin-9-yl)oxy)pyridin-2-yl)-4-oxo-1-(tetrahydro-2H-pyran-4-yl)-5-(p-tolyl)-1,4-dihydropyridazin-3-carboxamide]: in data set [1], the half-life at 1 μM worked out at 1.38 h and the intrinsic clearance (microsomal CLint) at 1 μM worked out at 16.8 µL/min/mg.
With `COc1cc2nccc(Oc3cnc(NC(=O)c4nn(C5CCOCC5)cc(-c5ccc(F)cc5)c4=O)nc3)c2cc1OC` [Compound 33, N-(5-((6,7-dimethoxyquinolin-4-yl)oxy)pyrimidin-2-yl)-5-(4-fluorophenyl)-4-oxo-1-(tetrahydro-2H-pyran-4-yl)-1,4-dihydropyridazin-3-carboxamide], the IC50 on CSF1R (h) was < 200 nM. Moreover, in data set [1], the half-life at 1 μM came out at 4.82 h and the microsomal CLint at 1 μM turned out to be 4.8 µL/min/mg.
For `COc1cc2nccc(Oc3ccc(NC(=O)c4nn(C5CCOCC5)cc(-c5ccc(F)cc5)c4=O)nc3)c2cc1OC` [Compound 34, N-(5-((6,7-dimethoxyquinolin-4-yl)oxy)pyridin-2-yl)-5-(4-fluorophenyl)-4-oxo-1-(tetrahydro-2H-pyran-4-yl)-1,4-dihydropyridazin-3-carboxamide], in that order: < 200 nM, 5.25 h and 4.4 µL/min/mg.
